Source: patent US20250195511A1, “INDAZOLE DERIVATIVES USEFUL AS INHIBITORS OF NOD-LIKE RECEPTOR PROTEIN 3” (Merck Sharp & Dohme LLC, priority 2023, published 2025)

Test system: NLRP3 inflammasome
Experiment: NLRP3 inflammasome activation: ASC-SPECK formation in gramicidin-stimulated THP-1 cells
Assay type: cell-based
Conditions: PMA-treated human monocytic THP-1 cells, compound 1 h before 12.5 μg/ml gramicidin, 3-hour treatment
How it was run: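 Undifferentiated human THP-1 cells primed overnight with 10 ng/ml PMA, then given compounds 1 h before 12.5 μg/ml gramicidin for 3 h at 37° C in RPMI with 0.01% BSA. Fixed cells immunostained for ASC with DRAQ5 nuclear counterstain; DRAQ5-positive cells with ASC specks counted by high-content imaging; EC50 from curve fitting.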

[1] = inhibition of ASC SPECK formation
[2] = Homo sapiens, THP-1, inhibition of ASC SPECK formation

| Structure (SMILES) | EC50 [1] [µM] | EC50 [2] [µM] |
| --- | --- | --- |
| Cc1cc(C(F)(F)F)cc(O)c1-c1cnc2cn(C3CCOCC34CC4)nc2n1 (single isomer, unassigned) [Example 99, (R or S)-2-(2-(5-oxaspiro[2.5]octan-8-yl)-2H-pyrazolo[3,4-b]pyrazin-6-yl)-3-methyl-5-(trifluoromethyl)phenol] | 0.58 | – |
| Cc1cc(C(F)(F)F)cc(O)c1-c1cnc2cn(C3CCOCC34CC4)nc2n1 (single isomer, unassigned) [Example 100, (S or R)-2-(2-(5-oxaspiro[2.5]octan-8-yl)-2H-pyrazolo[3,4-b]pyrazin-6-yl)-3-methyl-5-(trifluoromethyl)phenol] | 0.169 | – |
| Cc1cc(C(F)(F)F)cc(O)c1-c1cnc2cn([C@H]3CCOC[C@H]3F)nc2n1 (single isomer, unassigned) [Example 101, 2-(2-((3S,4S or 3R,4R)-3-fluorotetrahydro-2H-pyran-4-yl)-2H-pyrazolo[3,4-b]pyrazin-6-yl)-3-methyl-5-(trifluoromethyl)phenol] | 0.117 | – |
| Cc1cc(C(F)(F)F)cc(O)c1-c1cnc2cn([C@H]3CCOC[C@H]3F)nc2n1 (single isomer, unassigned) [Example 102, 2-(2-((3R,4R or 3S,4S)-3-fluorotetrahydro-2H-pyran-4-yl)-2H-pyrazolo[3,4-b]pyrazin-6-yl)-3-methyl-5-(trifluoromethyl)phenol] | 0.314 | – |
| Cc1cc(C(F)(F)F)cc(O)c1-c1cnc2cn(C3CCOCC3)nc2n1 [Example 1, 3-methyl-2-(2-(tetrahydro-2H-pyran-4-yl)-2H-pyrazolo[3,4-b]pyrazin-6-yl)-5-(trifluoromethyl)phenol] | – | 0.071 |
| Cc1cc(C(F)(F)F)cc(O)c1-c1cnc2cn(C34CC(C3)S(=O)(=O)C4)nc2n1 [Example 2, 4-(6-(2-hydroxy-6-methyl-4-(trifluoromethyl)phenyl)-2H-pyrazolo[3,4-b]pyrazin-2-yl)-2-thiabicyclo[2.1.1]hexane 2,2-dioxide] | – | 0.05 |
| Cc1cc(C(F)(F)F)cc(O)c1-c1cnc2cn([C@H]3CCC(=O)N(C)C3)nc2n1 [Example 5, (5S)-5-[6-[2-hydroxy-6-methyl-4-(trifluoromethyl)phenyl]pyrazolo[3,4-b]pyrazin-2-yl]-1-methyl-piperidin-2-one] | – | 0.013 |
| Cc1cc(C(F)(F)F)cc(O)c1-c1cnc2cn(C[C@@H]3CCN(C)C3)nc2n1 [Example 6, (R)-3-methyl-2-(2-((1-methylpyrrolidin-3-yl)methyl)-2H-pyrazolo[3,4-b]pyrazin-6-yl)-5-(trifluoromethyl)phenol] | – | 0.035 |
| Cc1cc(C(F)(F)F)cc(O)c1-c1cnc2cn(C[C@H]3CNC(=O)C3)nc2n1 [Example 7, (R)-4-((6-(2-hydroxy-6-methyl-4-(trifluoromethyl)phenyl)-2H-pyrazolo[3,4-b]pyrazin-2-yl)methyl)pyrrolidin-2-one] | – | 0.046 |
| Cc1cc(C(F)(F)F)cc(O)c1-c1cnc2cn(C34CC(C#N)(C3)C4)nc2n1 [Example 8, 3-(6-(2-hydroxy-6-methyl-4-(trifluoromethyl)phenyl)-2H-pyrazolo[3,4-b]pyrazin-2-yl)bicyclo[1.1.1]pentane-1-carbonitrile] | – | 0.038 |
| Cc1cc(C(F)(F)F)cc(O)c1-c1cnc2cn([C@@H]3[C@@H]4COC[C@@H]43)nc2n1 [Example 9, 2-(2-((1R,5S,6S)-3-oxabicyclo[3.1.0]hexan-6-yl)-2H-pyrazolo[3,4-b]pyrazin-6-yl)-3-methyl-5-(trifluoromethyl)phenol] | – | 0.059 |

More lines, now with the values ahead:

| EC50 [1] [µM] | EC50 [2] [µM] | Structure (SMILES) |
| --- | --- | --- |
| – | 0.321 | Cc1cc(C(F)(F)F)cc(O)c1-c1cnc2cn([C@H]3CCOC[C@@H]3F)nc2n1 (single isomer, unassigned) [Example 103, 2-(2-((3R,4S or 3S,4R)-3-fluorotetrahydro-2H-pyran-4-yl)-2H-pyrazolo[3,4-b]pyrazin-6-yl)-3-methyl-5-(trifluoromethyl)phenol] |
| 0.291 | – | Cc1cc(C(F)(F)F)cc(O)c1-c1cnc2cn([C@H]3CCOC[C@@H]3F)nc2n1 (single isomer, unassigned) [Example 104, 2-(2-((3S,4R or 3R,4S)-3-fluorotetrahydro-2H-pyran-4-yl)-2H-pyrazolo[3,4-b]pyrazin-6-yl)-3-methyl-5-(trifluoromethyl)phenol] |
| – | 0.433 | Cc1cc(C(F)(F)F)cc(O)c1-c1cnc2cn(C3CCOCC3(F)F)nc2n1 (single isomer, unassigned) [Example 105, (R or S)-2-(2-(3,3-difluorotetrahydro-2H-pyran-4-yl)-2H-pyrazolo[3,4-b]pyrazin-6-yl)-3-methyl-5-(trifluoromethyl)phenol] |
| – | 0.191 | Cc1cc(C(F)(F)F)cc(O)c1-c1cnc2c(C)n(C3CCC(=O)N(C)C3)nc2n1 (single isomer, unassigned) [Example 106, (S or R)-5-(6-(2-hydroxy-6-methyl-4-(trifluoromethyl)phenyl)-3-methyl-2H-pyrazolo[3,4-b]pyrazin-2-yl)-1-methylpiperidin-2-one] |
| 0.066 | – | Cc1cc(C(F)(F)F)cc(O)c1-c1cnc2c(C)n(C3CCC(=O)NC3)nc2n1 (single isomer, unassigned) [Example 108, (R or S)-5-(6-(2-hydroxy-6-methyl-4-(trifluoromethyl)phenyl)-3-methyl-2H-pyrazolo[3,4-b]pyrazin-2-yl)piperidin-2-one] |
| 0.279 | – | Cc1cc(C(F)(F)F)cc(O)c1-c1cnc2c(C)n(C3CCC(=O)NC3)nc2n1 (single isomer, unassigned) [Example 109, (S or R)-5-(6-(2-hydroxy-6-methyl-4-(trifluoromethyl)phenyl)-3-methyl-2H-pyrazolo[3,4-b]pyrazin-2-yl)piperidin-2-one] |
| 0.175 | – | Cc1nc2cn(C3CCC(=O)N(C)C3)nc2nc1-c1ccc(C(F)(F)F)cc1O (single isomer, unassigned) [Example 111, (R or S)-5-(6-(2-hydroxy-4-(trifluoromethyl)phenyl)-5-methyl-2H-pyrazolo[3,4-b]pyrazin-2-yl)-1-methylpiperidin-2-one] |
| 0.605 | – | Cc1nc2cn(C3CCC(=O)N(C)C3)nc2nc1-c1ccc(C(F)(F)F)cc1O (single isomer, unassigned) [Example 112, (S or R)-5-(6-(2-hydroxy-4-(trifluoromethyl)phenyl)-5-methyl-2H-pyrazolo[3,4-b]pyrazin-2-yl)-1-methylpiperidin-2-one] |
| – | 0.649 | CCOCOc1cc(C(F)(F)F)cc(C)c1-c1cnc2c([C@H](C)O)n(C[C@H]3CC(=O)N(C4CC4)C3)nc2n1 (single isomer, unassigned) [Example 113, (S or R)-1-cyclopropyl-4-((6-(2-(ethoxymethoxy)-6-methyl-4-(trifluoromethyl)phenyl)-3-((S or R)-1-hydroxyethyl)-2H-pyrazolo[3,4-b]pyrazin-2-yl)methyl)pyrrolidin-2-one] |
| – | 0.057 | CCOCOc1cc(C(F)(F)F)cc(C)c1-c1cnc2c([C@@H](C)O)n(C[C@H]3CC(=O)N(C4CC4)C3)nc2n1 (single isomer, unassigned) [Example 114, (S or R)-1-cyclopropyl-4-((6-(2-(ethoxymethoxy)-6-methyl-4-(trifluoromethyl)phenyl)-3-((R or S)-1-hydroxyethyl)-2H-pyrazolo[3,4-b]pyrazin-2-yl)methyl)pyrrolidin-2-one] |
| – | 0.287 | CCOCOc1cc(C(F)(F)F)cc(C)c1-c1cnc2c([C@@H](C)O)n(C[C@@H]3CC(=O)N(C4CC4)C3)nc2n1 (single isomer, unassigned) [Example 115, (R or S)-1-cyclopropyl-4-((6-(2-(ethoxymethoxy)-6-methyl-4-(trifluoromethyl)phenyl)-3-((R or S)-1-hydroxyethyl)-2H-pyrazolo[3,4-b]pyrazin-2-yl)methyl)pyrrolidin-2-one] |
| – | 0.028 | CCOCOc1cc(C(F)(F)F)cc(C)c1-c1cnc2c([C@H](C)O)n(C[C@@H]3CC(=O)N(C4CC4)C3)nc2n1 (single isomer, unassigned) [Example 116, (R or S)-1-cyclopropyl-4-((6-(2-(ethoxymethoxy)-6-methyl-4-(trifluoromethyl)phenyl)-3-((S or R)-1-hydroxyethyl)-2H-pyrazolo[3,4-b]pyrazin-2-yl)methyl)pyrrolidin-2-one] |
| 0.029 | – | Cc1cc(C(F)(F)F)cc(O)c1-c1cnc2c(C(C)O)n(C3CCC(=O)N(C(C)C)C3)nc2n1 (single isomer, unassigned) [Example 117, (S or R)-5-(6-(2-hydroxy-6-methyl-4-(trifluoromethyl)phenyl)-3-((S or R)-1-hydroxyethyl)-2H-pyrazolo[3,4-b]pyrazin-2-yl)-1-isopropylpiperidin-2-one] |
| 0.026 | – | Cc1cc(C(F)(F)F)cc(O)c1-c1cnc2c(C(C)O)n(C3CCC(=O)N(C(C)C)C3)nc2n1 (single isomer, unassigned) [Example 118, (R or S)-5-(6-(2-hydroxy-6-methyl-4-(trifluoromethyl)phenyl)-3-((S or R)-1-hydroxyethyl)-2H-pyrazolo[3,4-b]pyrazin-2-yl)-1-isopropylpiperidin-2-one] |
| 0.291 | – | Cc1cc(C(F)(F)F)cc(O)c1-c1cnc2c(C(C)O)n(C3CCC(=O)N(C(C)C)C3)nc2n1 (single isomer, unassigned) [Example 119, (R or S)-5-(6-(2-hydroxy-6-methyl-4-(trifluoromethyl)phenyl)-3-((R or S)-1-hydroxyethyl)-2H-pyrazolo[3,4-b]pyrazin-2-yl)-1-isopropylpiperidin-2-one] |
| 3.88 | – | Cc1cc(C(F)(F)F)cc(O)c1-c1cnc2c(C(C)O)n(C3CCC(=O)N(C(C)C)C3)nc2n1 (single isomer, unassigned) [Example 120, (S or R)-5-(6-(2-hydroxy-6-methyl-4-(trifluoromethyl)phenyl)-3-((R or S)-1-hydroxyethyl)-2H-pyrazolo[3,4-b]pyrazin-2-yl)-1-isopropylpiperidin-2-one] |
